Experiments:
[1] = (§1) Apparent permeability across basal to apical side of Sprague-Dawley Rattus norvegicus (rat) everted ileum sac at 1 mg/ml by HPLC method; type: ADME, tissue-based; settings: Sprague-Dawley
[2] = (§2) Apparent permeability across basal to apical side of Sprague-Dawley Rattus norvegicus (rat) everted jejunum sac at 1 mg/ml by HPLC method; type: ADME, tissue-based; settings: Sprague-Dawley
[3] = (§3) Apparent permeability across basal to apical side of Sprague-Dawley Rattus norvegicus (rat) everted duodenum sac at 1 mg/ml by HPLC method; type: ADME; settings: Sprague-Dawley
[4] = (§4) Apparent permeability across apical to basal side of Sprague-Dawley Rattus norvegicus (rat) normal ileum sac at 1 mg/ml by HPLC method; type: ADME, tissue-based; settings: Sprague-Dawley
[5] = (§5) Apparent permeability across apical to basal side of Sprague-Dawley Rattus norvegicus (rat) normal jejunum sac at 1 mg/ml by HPLC method; type: ADME, tissue-based; settings: Sprague-Dawley
[6] = (§6) Apparent permeability across apical to basal side of Sprague-Dawley Rattus norvegicus (rat) normal duodenum sac at 1 mg/ml by HPLC method; type: ADME; settings: Sprague-Dawley
[7] = (§7) Efflux Rattus norvegicus (rat)io of apparent permeability from basal to apical side over apical to basal side of Sprague-Dawley Rattus norvegicus (rat) ileum sac at 1 mg/ml by HPLC method; type: ADME, tissue-based; settings: Sprague-Dawley
[8] = (§8) Efflux Rattus norvegicus (rat)io of apparent permeability from basal to apical side over apical to basal side of Sprague-Dawley Rattus norvegicus (rat) jejunum sac at 1 mg/ml by HPLC method; type: ADME, tissue-based; settings: Sprague-Dawley
[9] = (§9) Efflux Rattus norvegicus (rat)io of apparent permeability from basal to apical side over apical to basal side of Sprague-Dawley Rattus norvegicus (rat) duodenum sac at 1 mg/ml by HPLC method; type: ADME; settings: Sprague-Dawley
[10] = test system: Ileum; test: as §1; type: ADME, tissue-based
[11] = test system: Jejunum; test: as §2; type: ADME, tissue-based
[12] = test system: Duodenum; test: as §3; type: ADME
[13] = test system: Ileum; test: as §4; type: ADME, tissue-based
[14] = test system: Jejunum; test: as §5; type: ADME, tissue-based
[15] = test system: Duodenum; test: as §6; type: ADME
[16] = test system: Ileum; test: as §7; type: ADME, tissue-based
[17] = test system: Jejunum; test: as §8; type: ADME, tissue-based
[18] = test system: Duodenum; test: as §9; type: ADME
[19] = Efflux Rattus norvegicus (rat)io of apparent permeability from basal to apical side over apical to basal side of Sprague-Dawley Rattus norvegicus (rat) duodenum sac at 500 ug/ml by HPLC method; type: ADME
[20] = Apparent permeability across basal to apical side of Sprague-Dawley Rattus norvegicus (rat) everted ileum sac at 500 ug/ml by HPLC method; type: ADME, tissue-based
[21] = Apparent permeability across basal to apical side of Sprague-Dawley Rattus norvegicus (rat) everted jejunum sac at 500 ug/ml by HPLC method; type: ADME, tissue-based
[22] = Apparent permeability across basal to apical side of Sprague-Dawley Rattus norvegicus (rat) everted duodenum sac at 500 ug/ml by HPLC method; type: ADME
[23] = Apparent permeability across apical to basal side of Sprague-Dawley Rattus norvegicus (rat) normal ileum sac at 500 ug/ml by HPLC method; type: ADME, tissue-based
[24] = Apparent permeability across apical to basal side of Sprague-Dawley Rattus norvegicus (rat) normal jejunum sac at 500 ug/ml by HPLC method; type: ADME, tissue-based
[25] = Apparent permeability across apical to basal side of Sprague-Dawley Rattus norvegicus (rat) normal duodenum sac at 500 ug/ml by HPLC method; type: ADME
[26] = Efflux Rattus norvegicus (rat)io of apparent permeability from basal to apical side over apical to basal side of Sprague-Dawley Rattus norvegicus (rat) […] sac at 500 ug/ml by HPLC method; type: ADME, tissue-based, Ileum
[27] = Efflux Rattus norvegicus (rat)io of apparent permeability from basal to apical side over apical to basal side of Sprague-Dawley Rattus norvegicus (rat) jejunum sac at 500 ug/ml by HPLC method; type: ADME, tissue-based
[28] = Oral bioavailability in Homo sapiens (human); type: ADME, organism-based; settings: in vivo
[29] = Elimination half life in Homo sapiens (human); type: ADME, organism-based; settings: in vivo, read-out: beta t1/2 (converted)
[30] = Dissociation constant, pKa of the compound; type: physicochemical
[31] = Tmax in Homo sapiens (human); type: ADME, organism-based; settings: in vivo

## CC(C)[C@H]1CC[C@H](C(=O)N[C@H](Cc2ccccc2)C(=O)O)CC1 (racemic; form 1) [NATEGLINIDE]
[1]
  Papp B→A at 1 mg/ml: 590 ×10⁻⁶ cm/s
[2]
  Papp B→A at 1 mg/ml: 340 ×10⁻⁶ cm/s
[3]
  Papp B→A at 1 mg/ml: 350 ×10⁻⁶ cm/s
[4]
  Papp A→B at 1 mg/ml: 190 ×10⁻⁶ cm/s
[5]
  Papp A→B at 1 mg/ml: 230 ×10⁻⁶ cm/s
[6]
  Papp A→B at 1 mg/ml: 260 ×10⁻⁶ cm/s
[7]
  efflux ratio at 1 mg/ml: 3.1
[8]
  efflux ratio at 1 mg/ml: 1.4
[9]
  efflux ratio at 1 mg/ml: 1.3

## CC(C)[C@H]1CC[C@H](C(=O)N[C@H](Cc2ccccc2)C(=O)O)CC1 (racemic; form 2) [NATEGLINIDE]
[10]
  Papp: 3.6 ×10⁻⁴ cm/s
[11]
  Papp: 3.6 ×10⁻⁴ cm/s
[12]
  Papp: 3.4 ×10⁻⁴ cm/s
[13]
  Papp: 1.3 ×10⁻⁴ cm/s
[14]
  Papp: 2.2 ×10⁻⁴ cm/s
[15]
  Papp: 2.4 ×10⁻⁴ cm/s
[16]
  Ratio: 3.5
[17]
  Ratio: 1.5
[18]
  Ratio: 1.4

## CC(C)[C@H]1CC[C@H](C(=O)N[C@@H](Cc2ccccc2)C(=O)O)CC1 [(S)-NATEGLINIDE]
[19]
  efflux ratio at 500 ug/ml: 1.4
[20]
  Papp B→A at 500 ug/ml: 380 ×10⁻⁶ cm/s
[21]
  Papp B→A at 500 ug/ml: 220 ×10⁻⁶ cm/s
[22]
  Papp B→A at 500 ug/ml: 210 ×10⁻⁶ cm/s
[23]
  Papp A→B at 500 ug/ml: 100 ×10⁻⁶ cm/s
[24]
  Papp A→B at 500 ug/ml: 130 ×10⁻⁶ cm/s
[25]
  Papp A→B at 500 ug/ml: 140 ×10⁻⁶ cm/s
[26]
  efflux ratio at 500 ug/ml: 3.8
[27]
  efflux ratio at 500 ug/ml: 1.7

## CC(C)[C@H]1CC[C@H](C(=O)N[C@H](Cc2ccccc2)C(=O)O)CC1 [NATEGLINIDE]
[28]
  bioavailability: 70%
[19]
  efflux ratio at 500 ug/ml: 1.6
[20]
  Papp B→A at 500 ug/ml: 440 ×10⁻⁶ cm/s
[21]
  Papp B→A at 500 ug/ml: 240 ×10⁻⁶ cm/s
[22]
  Papp B→A at 500 ug/ml: 250 ×10⁻⁶ cm/s
[23]
  Papp A→B at 500 ug/ml: 90 ×10⁻⁶ cm/s
[24]
  Papp A→B at 500 ug/ml: 120 ×10⁻⁶ cm/s
[25]
  Papp A→B at 500 ug/ml: 150 ×10⁻⁶ cm/s
[26]
  efflux ratio at 500 ug/ml: 4.8
[27]
  efflux ratio at 500 ug/ml: 2
[29]
  half-life: 84 min
[30]
  pKa: 3.1
[31]
  Tmax: 30 min

From ChEMBL document CHEMBL3046680, “Evidence of stereoselective and segmental-dependant transport of chiral antidiabetic drug nateglinide along the rat small intestine: possible role of efflux transporters” (Med Chem Res, 2013)
